This passage reports melting point results from a melting point compilation (Tetko et al.; mined from patent text by program, amines drawn as free bases though some values may be those of a salt).

The term melting point denotes the temperature, or range, at which the solid turns liquid. The molecule `COc1cc([N+](=O)[O-])c2c(c1OC)C(=O)CC2` returned a melting point of 202 to 204 °C. The result for `CCCCCCCCCCCCNC(=O)n1nc(Oc2ncc(C(F)(F)F)cc2Cl)cc1C` reads 56 to 57 °C; that for `COC(=O)CCCc1cc2nc(Cl)ccc2n1S(=O)(=O)c1ccc(-n2cccn2)cc1`, 122 to 124 °C; that for `c1ccc(COc2ccccc2OCCNCCCNc2ncccn2)cc1`, 90.1 °C.

Molecule `C[C@]1(CN2CCC(OCCCc3ccc(Cl)cc3)CC2)Cn2cc([N+](=O)[O-])nc2O1` had a melting point of 88.8 to 91.9 °C. The result for `COC(=O)CCCc1cc2cc(Cl)ccc2n1S(=O)(=O)c1ccc2sc(C)nc2c1` reads 136 to 138 °C; that for `CCNS(=O)(=O)c1cc(C)c2cc(C(C)C)ccc(C)c1-2`, 96 to 98 °C; that for `Cc1ccc2c(=O)c(-c3nnnn3C)cn(C)c2c1`, 254 to 255 °C. Turning to `O=c1c2ccccc2[nH]n1C(c1ccccc1)c1ccccc1`, the melting point was 179 to 181 °C.

As for `N#Cc1cc(F)c(-c2ncnc(C(F)(F)F)c2Cl)cc1[N+](=O)[O-]`, the melting point is 90 to 92 °C.

`Cc1cc(C2=CC(c3cc(Cl)cc(Cl)c3)(C(F)(F)F)OC2)ccc1C(=O)OC(C)(C)C` (stereo not given) had a melting point of 160 to 162 °C.

With `CCn1c(=O)c2[nH]c(/C=C/c3cccc(OC)c3)nc2n(CC)c1=O`, the melting point is 271 to 272 °C. The same measure for `Cc1nccn1-c1nc(-c2ccc(Cl)cc2)c(CCCC(=O)O)o1`: 211 to 212 °C. The same measure for `COCNC(=O)NC1CC(C)(C)N(C)C(C)(C)C1`: 105 °C; for `CCOc1cccc(N2C(=O)C(=CN(C)C)c3ccccc32)c1`: 99 to 102 °C; for `O=C(O)c1ccc(CO)c2ccccc12`: 183 to 184 °C.

Regarding `COC(CNC(=O)C(CS)CC(C)C)OC` (stereo not given), the melting point was 34 to 37 °C.

In turn, `COc1cc(C(C)=O)ccc1OCCCN1CCN(c2n[nH]c3ccccc23)CC1` came in with a melting point of 155 to 157 °C. The result for `COc1ccc(-c2nc(Cl)c(Oc3ccccc3OC)c(NS(=O)(=O)c3ccc(C(C)(C)C)cc3)n2)cc1` reads 221 to 222 °C; that for `N#CCCCCn1cnc(NC(=S)NCC(F)(F)F)n1`, 136 to 138 °C; that for `O=C1NC(=O)c2cc(Nc3ccc(OCc4ccccc4)cc3)c(Nc3ccc(OCc4ccccc4)cc3)cc21`, 187 to 189 °C. Turning to `CCCc1nc2c(N)nc3ccccc3c2o1`, the melting point lay in the range of 159 to 160 °C.

The molecule `CCCc1nn(-c2ccc(C(F)(F)F)cn2)cc1CCCOc1ccc(OC)c(CCC(=O)O)c1` registered a melting point of 104 to 106 °C. The result for `CCOCn1nccc1C(=O)c1ccc(O)c(Cl)c1Cl` reads 115 to 117 °C. The same measure for `CCOc1cc(-c2cc(C(F)(F)F)n3ncc(C(=O)Nc4nc(C)c(S(N)(=O)=O)s4)c3n2)ccc1C(F)(F)F`: 300 °C. Molecule `COc1cccc2c(O)c(CO)cnc12` displayed a melting point above 350 °C.

The molecule `NCCCCNC(=O)N1c2ccccc2C=Cc2ccccc21` gave a melting point of 114 to 116 °C.

As to `CC1(C)CCC2=C1CCC1C3CC(C#N)C(=O)C=C3CCC21` (stereo not given), the melting point lay within 163 to 165 °C.

`CCOC(=O)C1CCN(c2cc(C)nc3c2c(C)cn3-c2c(C)cc(Cl)cc2C)CC1`: the melting point was in the range of 140 to 142 °C. The result for `O=C(NCCCn1ccnc1)c1ccccc1NS(=O)(=O)c1ccc(Cl)cc1` reads 175 to 177 °C; that for `CN1C(=O)N(c2c(Cl)cccc2Cl)Cc2cnc(Nc3ccccc3)nc21`, 222 to 224 °C. The same measure for `Ic1ccc(CCc2ccc(I)cc2)cc1`: 150 to 151 °C. Turning to `Clc1ncccc1-c1ncoc1-c1cccnc1Cl`, the melting point lay in the range of 157 to 158 °C. As for `[N-]=[N+]=Nc1ccc(Cl)cc1C(=O)c1ccccc1`, the melting point lay within 81 to 83 °C.

For the molecule `CC(=O)NC(=O)C(Cl)c1ccccc1` (stereo not given), the melting point was 101 to 102 °C. The same measure for `Nc1nc(=O)n(C(=S)Oc2ccccc2)cc1F`: 113 to 116 °C; for `CCCCOc1cc(C(=O)O)cc([N+](=O)[O-])c1-c1ccccc1`: 133 to 134 °C. The result for `Cc1cc(CCCCCCCOc2ccc(C3=NCC(CO)O3)cc2)on1` (stereo not given) reads 71 to 73 °C; that for `O=Cc1cccc2cc(C(=O)OCc3ccccc3)[nH]c12`, 62 °C; that for `CCOC(=O)C1=C(C)NNC(CC)=C1c1ccco1`, 82 °C. The same measure for `CC(C)(C)SSc1nc2ccccc2s1`: 80 to 80.5 °C; for `Oc1ccc(Cc2ccc(OCC(O)CCc3cccnc3)cc2)cc1` (stereo not given): 98 to 99 °C; for `Cc1noc(NC(=O)C2c3ccccc3Oc3ccccc32)n1`: 208 °C. `Cc1cc(O)c(S(=O)Cc2ccc(Cl)cc2)c(=O)o1` (stereo not given) yielded a melting point of 150 to 151 °C. `CCc1nc2c(N)nc3ccccc3c2n1CC(C)(C)OCCS(C)(=O)=O`: the melting point lay in the range of 206 to 209 °C. Turning to `C=CC(=O)NCc1ccc(CCCl)cc1`, the melting point lay within 145 to 147 °C.

In turn, `Nc1cc(C(F)(F)F)cc([N+](=O)[O-])c1N` showed a melting point of 121 to 123 °C.

The molecule `CC(=O)C1CCC2C3CCC4CC(O)(C#Cc5ccccn5)CCC4(C)C3CCC12C` (stereo not given) came in with a melting point of 192 to 195 °C. The molecule `NC(=O)N(O)CCNC(=O)c1cccn1Cc1ccc(Cl)cc1` gave a melting point of 158 to 160 °C. The result for `CCCCCC(=O)Nc1ccc2ccn(CCCO)c2c1` reads 87 to 88 °C. In turn, `CC(C(=O)O)c1ccc2c(c1)Cc1cccnc1O2` (stereo not given) came in with a melting point of 183 to 184 °C. `C=C(C)c1c(OCC)cc(Cc2cnc(N)nc2N)cc1OCC`: the melting point is 196 to 198 °C. Consider `CCN(CC)C(=O)Nc1ccc2c(c1)C(c1ccccc1F)=NCC(=O)N2C`, for which the melting point lay within 138 to 139 °C. The result for `Cc1c(NCCNCC(O)COc2ccccc2)n(C)c(=O)n(C)c1=O` (stereo not given) reads 81 to 82 °C.

In turn, `Cc1cc(C)cc(C(=O)c2c(C(C)C)c(=O)[nH]c(=O)n2C/C=C/CCl)c1` displayed a melting point of 178 to 179 °C. `Cc1oc(-c2ccccc2)nc1COc1ccc2c(c1)CCC(CC1SC(=O)NC1=O)C2` (stereo not given): the melting point was 194 to 195 °C. The same measure for `N#CC1=Cc2ccccc2N(C(N)=O)c2ccccc21`: 143 to 145 °C; for `COCCNc1nc(N)nc(-c2cc(Cl)ccc2Cl)n1`: 195 to 197 °C; for `COc1ccc(CCC(C)(C)NCC(O)c2cccc(Cl)c2)cc1` (stereo not given): 50 to 53 °C. The same measure for `CCCCOC(=O)n1c2ccccc2c2nc3ccccc3cc21`: 168 °C; for `COCCN1C(=O)C(C)(C)C(=O)N(C)c2cc(CN(CCn3cc(C)c4occc4c3=O)Cc3cccnc3C)ccc21`: 127 to 130 °C; for `COC(=O)C[C@H](O)CC(=O)C=Cc1c(-c2ccc(F)cc2)c(-c2ccccc2)c(C(=O)Nc2ccccc2)n1C(C)C`: 72 to 74 °C. `CCc1ccc(C2CCC(c3ccc(O)cc3)(c3ccc(O)cc3)CC2)cc1` showed a melting point of 187 to 188 °C. Regarding `COc1ccc2cc(-c3cccnc3)ccc2n1`, the melting point fell in the range of 89 to 91 °C.

Take `CC(C)=CCN1CCN(CCC(=O)N2c3ccccc3C(=O)Nc3cccnc32)CC1`: the melting point lay in the range of 199 to 201 °C.

Molecule `CC(C)(C)OC(=O)C1CCC2(CCn3c(cc4ccccc43)C2)C1=O` (stereo not given) gave a melting point of 129 to 131 °C. `COc1cc(OC)nc(C2OC(=O)c3c(Cl)cccc32)n1` (stereo not given) yielded a melting point of 148 to 149 °C. The result for `CSc1nc(NC(=O)NS(=O)(=O)c2ccccc2C(=O)OC(C)C)nn1C` reads 192 to 194 °C; that for `Nc1c2c(nc3cc(F)ccc13)CCSC2`, 234 to 237 °C; that for `Cc1ccc(C(O)(c2ccc(C)cc2)[C@H](C)OS(C)(=O)=O)cc1`, 83 to 85 °C. `Fc1ccc(C(c2ccccc2)(c2ccccc2F)n2ccnc2)cc1` (stereo not given) displayed a melting point of 164 to 167 °C.

With `Cc1nc2[nH]c(=O)ccc2c(C)c1C`, the melting point lay in the range of 170 to 175 °C. The same measure for `NS(=O)(=O)Cc1cccc2c1C(=O)OC2`: 192 to 195 °C; for `CCCCc1nc2c(n1Cc1ccc(-c3ccccc3S(=O)(=O)NC(=O)NCCC)cc1)C(=NO)CCS2`: 178 °C. Consider `O=C(NCc1ccn(-c2cc3nc(C(=O)O)c(=O)[nH]c3cc2C(F)(F)F)c1)Nc1cccc(C(=O)O)c1`, for which the melting point was 300 °C. The same measure for `COc1c([N+](=O)[O-])ccc2c1C(=O)CC1(CCN(C(C)=O)CC1)O2`: 160 to 165 °C.

`NC(=O)c1cccc(C2OCCO2)c1` had a melting point of 92 to 94 °C. The result for `NS(=O)(=O)c1ncccc1-c1ccccc1` reads 172 °C; that for `C#CCOc1ccc(CCNC(=O)C(=O)c2ccc(-c3ccc(Cl)cc3)cc2)cc1OC`, 122 to 124 °C; that for `CCOC(=O)CN1CCc2cc3c(cc2CC1)OCO3`, 89 to 90 °C. The result for `CN1CCC(c2c(O)cc(O)c3c(=O)cc(-c4ccccc4Cl)oc23)C1CO` (stereo not given) reads 228 to 230 °C; that for `CCn1ncc2c1ncc1c(NC)nc3cc(C)nn3c12`, 254 to 255 °C; that for `CC(=O)c1sc(N2CCN(CCCC(F)(F)F)C2=O)nc1C`, 108 to 110 °C. Molecule `CSCC(=O)C(Cc1ccccc1)NC(=O)C(CC(C)C)NC(=O)Cc1cccc2ccccc12` (stereo not given) came in with a melting point of 126 to 129 °C. Regarding `CN(C(=O)CCS)c1nnc(-c2cccnc2)s1`, the melting point is 149 to 151 °C. Molecule `CCSc1cnn(-c2cc(-c3ccnc(Nc4cccc(Cl)c4)n3)ccn2)c(=O)c1Cl` showed a melting point of 80 to 100 °C. The same measure for `Cc1cccc(-c2nc3ccc(OCCN(C)C)cc3n2Cc2ccccc2C(F)(F)F)c1`: 93 °C; for `COc1ccc(CCNC(=S)c2ccccc2C)cc1OC`: 94 to 95 °C. In the case of `O=C(c1cc2ccccc2c(-c2ccccc2Cl)n1)N1CCCCC1`, the melting point came to 161 °C.

With `CN(C)C1(c2ccccc2)CCC(=CC(=O)N2CCC(c3c[nH]c4ccccc34)C2)CC1` (stereo not given), the melting point lay within 94 to 97 °C.
